Assay results: BindingDB's records for doi:10.1016/j.bmcl.2009.10.099 (Merck Research Laboratories, 2010)

target: Cholesteryl ester transfer protein (Homo sapiens) (UniProt P11597); test: inhibition of human CETP assessed as cholesteryl ester transfer by fluorescence transfer assay
Sequence (P11597 whole entry, looked up): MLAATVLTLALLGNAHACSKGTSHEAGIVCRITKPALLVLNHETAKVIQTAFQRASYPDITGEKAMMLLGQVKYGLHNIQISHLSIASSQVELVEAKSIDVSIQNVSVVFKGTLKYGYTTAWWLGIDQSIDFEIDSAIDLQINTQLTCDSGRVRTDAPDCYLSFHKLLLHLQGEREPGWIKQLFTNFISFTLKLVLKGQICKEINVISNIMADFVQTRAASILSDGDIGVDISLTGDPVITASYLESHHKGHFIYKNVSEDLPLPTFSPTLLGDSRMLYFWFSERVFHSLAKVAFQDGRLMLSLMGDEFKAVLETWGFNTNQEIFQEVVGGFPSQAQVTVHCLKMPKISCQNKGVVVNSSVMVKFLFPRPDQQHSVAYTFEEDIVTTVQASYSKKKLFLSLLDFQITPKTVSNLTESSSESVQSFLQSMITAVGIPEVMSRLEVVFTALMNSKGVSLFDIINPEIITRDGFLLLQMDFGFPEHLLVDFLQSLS

IC50 [nM]	Compound
21000	Cc1ccccc1OCC(=O)Nc1ccc(-c2nc3cccc(Cl)c3o2)cc1
44	Cc1ccccc1OCC(=O)Nc1ccc(-c2nc3cc(Br)cc(C(C)(C)O)c3o2)cc1
160	CC#CC(C)(O)c1cc(C#N)cc2nc(-c3ccc(NC(=O)COc4ccccc4C)cc3)oc12 (configuration not stated)
940	Cc1ccccc1OCC(=O)Nc1ccc(-c2nc3cc([N+](=O)[O-])ccc3o2)cc1
3200	Cc1ccccc1OCC(=O)Nc1ccc(-c2nc3ccc([N+](=O)[O-])cc3o2)cc1
86	CC(=O)c1cc(C#N)cc2nc(-c3ccc(NC(=O)COc4ccccc4C)cc3)oc12
> 100000	Cc1cc2oc(-c3ccc(NC(=O)COc4ccccc4C)cc3)nc2cc1Cl
3400	Cc1ccccc1OCC(=O)Nc1ccc(-c2nc3cc(C(C)O)ccc3o2)cc1 (configuration not stated)
7500	Cc1ccccc1OCC(=O)Nc1ccc(-c2nc3ccc(F)cc3o2)cc1
2000	Cc1ccc2oc(-c3ccc(NC(=O)COc4ccccc4C)cc3)nc2c1
> 100000	Cc1ccccc1OCC(=O)Nc1ccc(-c2nc3c(C)c(Br)ccc3o2)cc1
910	Cc1ccccc1OCC(=O)Nc1ccc(-c2nc3cc(Br)cc(F)c3o2)cc1
